Test results taken from patent US20250177115A1, “COMBINATORIAL THERAPIES INCLUDING IMPLANTABLE DAMPING DEVICES AND THERAPEUTIC AGENTS FOR TREATING A CONDITION AND ASSOCIATED SYSTEMS AND METHODS OF USE” (THE BRAIN PROTECTION COMPANY PTY LTD, priority 2021, published 2025).

Tested on: TAC mice
Experiment: Cognition (Y Maze, exploratory behaviour)
Assay type: in vivo
Procedure: FIG. 24 is a dot plot showing the % alterations in a Y maze in mice with an absorbable suture versus a plain suture, with and without treatment according to some embodiments. Measurement of the number of alternations within the 3 arms of a Y-Maze according to the following formula: % alternation=(total alternations/(total entries−2)×100).
Cognition (Y Maze—exploratory behaviour). Cognition was measured according to the number of behavior alterations within the three (3) arms of a Y Maze, as shown in FIGS. 23-24.

Question: What does the source list for `CCCCCCCCc1ccc(CCC(N)(CO)CO)cc1` [Fingolimod, fingolimod]?
Answer: mean % alteration in a Y maze (treated absorbable suture group, SEM=3.556, n=7): 61.396%; mean % alteration in a Y maze (treated plain suture group, SEM=2.644, n=12): 70.296%
